Reference: ChEMBL document CHEMBL1201862, “PubChem BioAssay data set” (2004)
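Step 1: Grow cells in 96-well plates. Step 2: Expose to compound for 48 hours at 5 concentrations. Step 3: Interpolate endpoints linearly; if unreached, use highest concentration. Here, GI50 denotes the concentration required for 50% inhibition of growth.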 Activity calls are given as the source filed them. No stated cut-off is given here; in the data, active = GI50 up to about 1.1 µM and inactive = higher.

Experiments:
Experiment in all cases: NCI anticancer screen, dose series, 48 h
[1] = test system: 786-0
[2] = test system: A498
[3] = test system: A549
[4] = test system: ACHN
[5] = test system: CAKI-1
[6] = test system: CCRF-CEM
[7] = test system: COLO 205
[8] = test system: DLD-1
[9] = test system: DMS-114
[10] = test system: EKVX
[11] = test system: HCC 2998
[12] = test system: HCT-116
[13] = test system: HCT-15
[14] = test system: HL-60
[15] = test system: HOP-18
[16] = test system: HOP-62
[17] = test system: HOP-92
[18] = test system: HT-29
[19] = test system: IGROV-1
[20] = test system: K562
[21] = test system: KM-20L2
[22] = test system: KM12
[23] = test system: LOX IMVI
[24] = test system: LXFL 529
[25] = test system: M14
[26] = test system: M19-MEL
[27] = test system: MOLT-4
[28] = test system: Malme-3M
[29] = test system: NCI-H226
[30] = test system: NCI-H23
[31] = test system: NCI-H460
[32] = test system: NCI-H522
[33] = test system: OVCAR-3
[34] = test system: OVCAR-4
[35] = test system: OVCAR-5
[36] = test system: OVCAR-8
[37] = test system: RPMI-8226
[38] = test system: RXF 393
[39] = test system: RXF 631
[40] = test system: SF-268
[41] = test system: SF-295
[42] = test system: SF-539
[43] = test system: SK-MEL-28
[44] = test system: SK-MEL-2
[45] = test system: SK-MEL-5
[46] = test system: SK-OV-3
[47] = test system: SN12C
[48] = test system: SNB-19
[49] = test system: SNB-75
[50] = test system: SNB-78
[51] = test system: SR
[52] = test system: TK-10
[53] = test system: U-251
[54] = test system: UACC-257
[55] = test system: UACC-62
[56] = test system: UO-31
[57] = test system: XF498
[58] = test system: DMS-273
[59] = test system: SW-620

CC(C)=CC1CC(=O)C1(C)Sc1ccccc1 (stereo not drawn)
GI50 [1]: 50.7 µM (inactive) | GI50 [2]: 56.2 µM (inactive) | GI50 [3]: 48.2 µM (inactive) | GI50 [4]: > 100 µM (inactive) | GI50 [5]: 54.7 µM (inactive) | GI50 [6]: 19.1 µM (inactive) | GI50 [7]: 23.1 µM (inactive) | GI50 [8]: 52.8 µM (inactive) | GI50 [9]: 16.6 µM (inactive) | GI50 [10]: 54.2 µM (inactive) | GI50 [11]: > 100 µM (inactive) | GI50 [12]: 29.6 µM (inactive) | GI50 [13]: 17.3 µM | GI50 [14]: 22.8 µM (inactive) | GI50 [15]: > 100 µM (inactive) | GI50 [16]: > 100 µM (inactive) | GI50 [17]: 29.9 µM (inactive) | GI50 [18]: 27.4 µM (inactive) | GI50 [19]: > 100 µM (inactive) | GI50 [20]: 21.9 µM (inactive) | GI50 [21]: 36.3 µM (inactive) | GI50 [22]: > 100 µM (inactive) | GI50 [23]: 17.3 µM (inactive) | GI50 [24]: 42.7 µM (inactive) | GI50 [25]: 96.4 µM (inactive) | GI50 [26]: 27.5 µM (inactive) | GI50 [27]: 34.4 µM (inactive) | GI50 [28]: > 100 µM (inactive) | GI50 [29]: 34.4 µM (inactive) | GI50 [30]: 56.4 µM (inactive) | GI50 [31]: 25 µM (inactive) | GI50 [32]: 24 µM (inactive) | GI50 [33]: 52.4 µM (inactive) | GI50 [34]: > 100 µM (inactive) | GI50 [35]: > 100 µM (inactive) | GI50 [36]: > 100 µM (inactive) | GI50 [37]: 20.6 µM (inactive) | GI50 [38]: 26.2 µM (inactive) | GI50 [39]: 28 µM (inactive) | GI50 [40]: 51.3 µM (inactive) | GI50 [41]: > 100 µM (inactive) | GI50 [42]: > 100 µM (inactive) | GI50 [43]: > 100 µM (inactive) | GI50 [44]: 35.2 µM (inactive) | GI50 [45]: 33.3 µM (inactive) | GI50 [46]: > 100 µM (inactive) | GI50 [47]: 71.8 µM (inactive) | GI50 [48]: 67.8 µM (inactive) | GI50 [49]: 65.2 µM (inactive) | GI50 [50]: 60.1 µM (inactive) | GI50 [51]: 20 µM (inactive) | GI50 [52]: > 100 µM (inactive) | GI50 [53]: 67 µM (inactive) | GI50 [54]: 45.5 µM (inactive) | GI50 [55]: > 100 µM (inactive) | GI50 [56]: 50.2 µM (inactive) | GI50 [57]: 37.7 µM (inactive)

C/C=C(/CCC1NCCC2c3ccccc3NC12)[Si](C)(C)C (stereo not drawn)
GI50 [1]: 11.3 µM (inactive) | GI50 [3]: 14.6 µM (inactive) | GI50 [4]: 14.2 µM (inactive) | GI50 [5]: 10.8 µM (inactive) | GI50 [6]: 3.6 µM (inactive) | GI50 [7]: 1.69 µM (inactive) | GI50 [8]: 5.16 µM (inactive) | GI50 [9]: 4.53 µM (inactive) | GI50 [58]: 8.55 µM (inactive) | GI50 [10]: 14.4 µM (inactive) | GI50 [11]: 2.02 µM (inactive) | GI50 [12]: 3.52 µM (inactive) | GI50 [13]: 12.4 µM | GI50 [14]: 2.12 µM (inactive) | GI50 [15]: 13.7 µM (inactive) | GI50 [16]: 15.2 µM (inactive) | GI50 [17]: 5.58 µM (inactive) | GI50 [18]: 2.83 µM (inactive) | GI50 [19]: 12.8 µM (inactive) | GI50 [20]: 2.75 µM (inactive) | GI50 [21]: 4.62 µM (inactive) | GI50 [22]: 4.52 µM (inactive) | GI50 [23]: 7.31 µM (inactive) | GI50 [24]: 3.65 µM (inactive) | GI50 [25]: 3.66 µM (inactive) | GI50 [26]: 12 µM (inactive) | GI50 [27]: 3.17 µM (inactive) | GI50 [29]: 13.3 µM (inactive) | GI50 [30]: 13.8 µM (inactive) | GI50 [31]: 3.3 µM (inactive) | GI50 [32]: 16 µM (inactive) | GI50 [33]: 11.4 µM (inactive) | GI50 [34]: 7.57 µM (inactive) | GI50 [35]: 7.28 µM (inactive) | GI50 [36]: 7.98 µM (inactive) | GI50 [37]: 2.84 µM (inactive) | GI50 [38]: 6.53 µM (inactive) | GI50 [39]: 10.4 µM (inactive) | GI50 [40]: 9.31 µM (inactive) | GI50 [41]: 15.6 µM (inactive) | GI50 [42]: 15.8 µM (inactive) | GI50 [43]: 5.2 µM (inactive) | GI50 [44]: 13.8 µM (inactive) | GI50 [45]: 12.8 µM (inactive) | GI50 [46]: 15.7 µM (inactive) | GI50 [47]: 11.7 µM (inactive) | GI50 [48]: 15.5 µM (inactive) | GI50 [49]: 9.73 µM (inactive) | GI50 [50]: 11.6 µM (inactive) | GI50 [51]: 2.9 µM (inactive) | GI50 [59]: 3.02 µM (inactive) | GI50 [52]: 15 µM (inactive) | GI50 [53]: 12.8 µM (inactive) | GI50 [54]: 4.38 µM (inactive) | GI50 [55]: 13.5 µM (inactive) | GI50 [56]: 7.08 µM (inactive) | GI50 [57]: 3.15 µM (inactive)

NS(=O)(=O)c1ccc(NC(=O)c2cccn3c(=O)c4ccccc4nc23)cc1
GI50 [1]: > 100 µM (inactive) | GI50 [2]: > 100 µM (inactive) | GI50 [3]: > 100 µM (inactive) | GI50 [4]: > 100 µM (inactive) | GI50 [5]: > 100 µM (inactive) | GI50 [6]: > 100 µM (inactive) | GI50 [7]: > 100 µM (inactive) | GI50 [8]: > 100 µM (inactive) | GI50 [9]: > 100 µM (inactive) | GI50 [10]: > 100 µM (inactive) | GI50 [12]: > 100 µM (inactive) | GI50 [14]: > 100 µM (inactive) | GI50 [15]: > 100 µM (inactive) | GI50 [16]: > 100 µM (inactive) | GI50 [17]: > 100 µM (inactive) | GI50 [18]: > 100 µM (inactive) | GI50 [19]: > 100 µM (inactive) | GI50 [20]: > 100 µM (inactive) | GI50 [21]: > 100 µM (inactive) | GI50 [22]: 41.2 µM (inactive) | GI50 [23]: 86.3 µM (inactive) | GI50 [24]: > 100 µM (inactive) | GI50 [25]: > 100 µM (inactive) | GI50 [26]: > 100 µM (inactive) | GI50 [27]: 80.2 µM (inactive) | GI50 [28]: > 100 µM (inactive) | GI50 [29]: > 100 µM (inactive) | GI50 [30]: > 100 µM (inactive) | GI50 [31]: > 100 µM (inactive) | GI50 [32]: > 100 µM (inactive) | GI50 [33]: > 100 µM (inactive) | GI50 [34]: > 100 µM (inactive) | GI50 [36]: > 100 µM (inactive) | GI50 [37]: > 100 µM (inactive) | GI50 [38]: > 100 µM (inactive) | GI50 [39]: > 100 µM (inactive) | GI50 [40]: > 100 µM (inactive) | GI50 [41]: > 100 µM (inactive) | GI50 [42]: > 100 µM (inactive) | GI50 [43]: > 100 µM (inactive) | GI50 [45]: > 100 µM (inactive) | GI50 [46]: > 100 µM (inactive) | GI50 [47]: > 100 µM (inactive) | GI50 [48]: > 100 µM (inactive) | GI50 [49]: > 100 µM (inactive) | GI50 [50]: > 100 µM (inactive) | GI50 [51]: 79.8 µM (inactive) | GI50 [59]: > 100 µM (inactive) | GI50 [52]: > 100 µM (inactive) | GI50 [53]: > 100 µM (inactive) | GI50 [54]: > 100 µM (inactive) | GI50 [55]: > 100 µM (inactive) | GI50 [56]: 85.5 µM (inactive) | GI50 [57]: > 100 µM (inactive)
